# Reference: US20230110689A1, “AGONIST COMBINATION” (Zealand Pharma A/S, priority 2020, published 2023)
# Starred links: 1 amine or outer side, 2 acyl side, 3 side chain; linkers in the order of their positions; H or OH if unused. Non-standard residues stand in square brackets, D forms with d. Groups on a side chain read outwards from the residue. *: point of attachment. C18 diacid = O=C(O)CCCCCCCCCCCCCCCCC(=O)*; γGlu = O=C(O)[C@H](CCC(=O)[*:2])N[*:1]; Aib = CC(C)(N)C(=O)O
# Key:
# Format in all cases: in vivo, C57BL/6J mice
# [1] = system: Short Bowel Syndome (SBS) mice; assay: SBS mouse model: gross morphology / length of intestine on day 14; settings: ICR mice, 30 nmol/kg once daily, FIG. 16
# Text: (§1) Adult, male C57BL/6J mice with ˜30 g body weight of ˜4 months, received a 12-cm ileum and cecum resection (ICR) with jejunocolonic anastomosis (see FIG. 1, middle). The mice were then randomly assigned to either Cpd 18 or vehicle treatment As control for the abdominal surgery, the sham group was included which had laparotomy, bowel exposure, transection and end-to-end anastomosis but no resection (see FIG. 1, bottom). To prevent intestinal obstruction, all mice were switched to liquid diet 2 days before surgery and maintained on this diet until the end of the experiment. Throughout the experiment, animals were singly housed. All mice were studied with the intention to survive to day 14.
# Briefly, mice were anesthetized by i.p. injection of ketamine (100 mg/kg bw) and xylazine (15 mg/kg bw) and orally intubated and ventilated. After midline incision, the distal small bowel and the cecum were exposed and then transected 12 cm proximal to the ileocecal junction and immediately distal to the cecum. The resected bowel was removed, and the length of the specimen was measured. An end-to-end, jejuno-colonic anastomosis was created and the abdomen was closed. […]
# (§2) Mice were scored for wellbeing daily as described (Berlin et al. 2019). If the wellness score dropped to below 4 pts, or when weight loss exceeded 20%, the mouse was immediately killed and not analyzed further. […]
# [2] = system: Short Bowel Syndome (SBS) mice; assay: Short bowel syndrome (SBS) mouse model: post operative survival, body weight and dietary intake; settings: ICR mice
# Text: as §1
# (§3) Briefly, mice were anesthetized by i.p. injection of ketamine (100 mg/kg bw) and xylazine (15 mg/kg bw) and orally intubated and ventilated. After midline incision, the distal small bowel and the cecum were exposed and then transected 12 cm proximal to the ileocecal junction and immediately distal to the cecum. The resected bowel was removed, and the length of the specimen was measured. An end-to-end, jejuno-colonic anastomosis was created and the abdomen was closed. In the sham group, laparotomy, bowel exposure, transection and end-to-end anastomosis but no resection was performed. Immediately after surgery, all mice were weighed and received 1 ml isotonic saline subcutaneously and carprofen 5 mg/kg body weight. All surgical procedures were performed by the same surgeon. Mice were kept in a heated terrarium (29° C.) for 4 h and then returned to individual cages with free access to liquid food and water. The liquid diet was provided in feeding tubes. Mice were allowed to recover for a day after surgery, and then injected once daily with 30 nmol/kg body weight of Cpd 18. […]
# as §2
# Body weight (FIG. 6) and food consumption (FIG. 7) was measured daily. […]
# [3] = system: Short Bowel Syndome (SBS) mice; assay: SBS mouse model: jejunum weight (wet weight, dry weight, water content per 2 cm); settings: ICR mice, 30 nmol/kg once daily
# Text: as §1
# as §3, with “tubes.” for “tubes. Mice were allowed to recover for a day after surgery, and then injected once daily with 30 nmol/kg body weight of Cpd 18.”
# as §2
# Sham and SBS mice were prepared as described under Preparation of Short Bowel Syndome (SBS) mice. […] Water content and dry weight was then derived and calculated.
# [4] = system: Short Bowel Syndome (SBS) mice; assay: SBS mouse model: histological morphometry of intestine (mucosal height, bowel diameter); settings: ICR mice, 30 nmol/kg once daily, vs sham
# Text: as §1
# Briefly, mice were anesthetized by i.p. injection of ketamine (100 mg/kg bw) and xylazine (15 mg/kg bw) and orally intubated and ventilated. […] The resected bowel was removed, and the length of the specimen was measured. […]
# as §2
# Sham and SBS mice were prepared as described under Preparation of Short Bowel Syndome (SBS) mice. […] Bowel diameter was measured from the same samples from serosa to serosa in two dimensions. […]
substance,measurement,setting,value
H-H[Aib]EGSFTSELATILDK([γGlu-C18 diacid])QAARDFIAWLIQHKITD-OH [Cpd 18],bowel length and thickness,"[1]; day 14, representative example vs sham",An increase in bowel length and thickness
same,solid feces in intestine,"[1]; day 14, representative example, absent in vehicle",solid feces in the sham and Cpd 18 treated intestine
same,survival rate after 14 days,"[2]; 30 nmol/kg body weight once daily from day 1 after surgery, FIG. 5",74%
same,dietary intake,"[2]; 30 nmol/kg once daily, liquid diet, measured daily, vs vehicle, FIG. 7",lower in the Cpd 18 treated animals from day 2 onwards as compared to vehicle
same,relative body weight (relative to initial weight),"[2]; 30 nmol/kg once daily, measured daily to day 14, vs vehicle, FIG. 6",differed from the vehicle group after six days onwards by starting to increase towards the initial weight
same,dry weight per 2 cm of intestine,"[3]; day 14, desiccated sections, FIG. 11",the same increases in mass were measured
same,wet weight of 2 cm sections of intestine,"[3]; day 14, proximal jejunum, FIG. 10",73 mg
same,percentage of water content per 2 cm of intestine,"[3]; day 14, FIG. 12",each group had an equal water content of the intestine
same,mucosal height,"[4]; day 14, crypt base to villus tip, FIG. 8",approximately double the mucosal height of sham treated animals
same,bowel diameter,"[4]; day 14, serosa to serosa, FIG. 9",approximately double the bowel diameter of sham treated animals
